Data published in patent US10808003B2, “Amphipathic molecule based on tandem malonate and use thereof” (Industry-University Cooperation Foundation Hanyang …, priority 2017, dated 2020).
Entries after “also recorded” stand apart in the source; their conditions may differ.

Key:
[1] = target: T1, uric acid-xanthine/H+ symporter (UapA) (Emericella nidulans, UniProt Q07307, G411V); assay: Thermal/structural stability of UapA by CPM fluorescence assay; format: biochemical, Aspergillus nidulans; conditions: CMC+0.2 wt %, 125 minutes at 40° C., FIG. 10
T1 construct: GFP; made in house; host or cells: Saccharomyces cerevisiae FGY217
Protocol: An experiment of measuring structural stability of a uric acid-xanthine/H+ symporter (UapA) separated from Aspergillus nidulans by TMG was performed. The structural stability of UapA was evaluated using a sulfhydryl-specific fluorophore and N-[4-(7-diethylamino-4-methyl-3-coumarinyl)phenyl]maleimide (CPM).
Specifically, UapAG411V1-11 (hereinafter, referred to as “UapA”) expressed as a GFP fusion protein from a Saccharomyces cerevisiae FGY217 strain, and the protein was separated using a sample buffer (20 mM Tris (pH 7.5), 150 mM NaCl, 0.03% DDM, 0.6 mM xanthine) according to a method disclosed in the article written by J. Leung et al. (Mol. Membr. Biol. 2013, 30, 32-42). The protein having a molecular weight of 100 kDa was concentrated to approximately 10 mg/mL using a cut-off filter (Millipore). The protein was diluted with a buffer containing each of the TMG-As (TMG-A11, TMG-A12, TMG-A13 and TMG-A14), TMG-Ts (TMG-T11, TMG-T12, TMG-T13 and TMG-T14), MNG-3 or DDM at a ratio of 1:150 to reach the final concentration of CMC+0.04 wt % or CMC+0.2 wt % in a Greiner 96-well plate. A CPM dye (Invitrogen) stored in DMSO (Sigma) was diluted with a staining buffer (20 mM Tris (pH 7.5), 150 mM NaCl, 0.03% DDM, 5 mM EDTA), and 3 μL of the staining buffer was added to each sample. The reaction mixture was incubated at a constant temperature for 125 minutes at 40° C. Fluorescence emission was recorded using a microplate spectrofluorometer set to each of excitation and emission wavelengths of 387 nm and 463 nm. A relative amount of folded proteins was plotted over time using GraphPad Prism.

[2] = Hydrodynamic radius of micelles by dynamic light scattering (DLS); format: physicochemical; conditions: micelles formed by each agent at 1.0 wt %
Protocol: A method of measuring the radius of the micelles is not particularly limited, and any method well known in the art, for example, a DLS test may be used.
(§1) Specifically, a CMC was measured using fluorescent staining and diphenylhexatriene (DPH), and the hydrodynamic radii (Rh) of micelles formed by each agent (1.0 wt %) were measured by a DLS test. The measured results were compared with those for the conventional amphipathic molecule (detergent), DDM, and thus are shown in Table 1.

[3] = target: T2, human β2 adrenergic receptor (β2AR) (Homo sapiens, UniProt P07550); assay: β2AR stability by [3H]-dihydroalprenolol (DHA) ligand binding assay; format: biochemical; conditions: CMC+0.2 wt %; for long-term maintenance of binding between β2AR and ligand: 7-day incubation at room temperature, FIG. 14b; for initial β2AR receptor activity ([3H]-DHA binding): FIG. 14a
T2 construct: made in house; host or cells: cell membrane
Protocol: Experiments for measuring stability of a human β2 adrenergic receptor (β2AR) and a G-protein-coupled receptor (GPCR) by TMGs were performed. A receptor was extracted from a cell membrane using 1% DDM and purified with a 0.1% amphipathic molecule. The receptor purified with the DDM was diluted with a buffer solution containing DDM or TMGs to adjust the final concentration of the compound to CMC+0.2 wt %. β2AR solubilized by each amphipathic molecule was stored for 7 days at room temperature, and the sample was incubated with 10 nM [^3H]-dihydroalprenolol (DHA) supplemented with 0.5 mg/ml BSA for 30 minutes at room temperature to evaluate a ligand-binding ability at regular intervals during the experimental period. The mixture was loaded onto a G-50 column, and a liquid running through the column was collected using 1 ml of a binding buffer (20 mM HEPES containing 0.5 mg/ml BSA and 20×CMC of each amphipathic molecule, pH 7.5, 100 mM NaCl). In addition, 15 ml of a scintillation fluid was added, and receptor-bound [^3H]-DHA was measured using a scintillation counter (Beckman). A binding degree of the [^3H]-DHA was shown by a column graph (FIG. 14). The experiment was repeated three times.

[4] = Critical micelle concentration by fluorescent staining with diphenylhexatriene (DPH); format: physicochemical; conditions: aqueous solution
Protocol: A method of measuring CMC is not particularly limited, and any method well known in the art, for example, a fluorescent staining method using diphenylhexatriene (DPH) may be used.
as §1

[5] = tested on: LeuT (leucine transporter); assay: LeuT stability by [3H]-Leu substrate binding, scintillation proximity assay (SPA); format: biochemical, Aquifex aeolicus; conditions: TMGs or DDM at CMC+0.04 wt %, 10 days at room temperature
Protocol: An experiment of measuring LeuT protein stability for TMGs and TMMs was performed. (a) CMC+0.04 wt % or (b) CMC+0.2 wt % of each amphipathic molecule was used, and the evaluation of the LeuT protein stability was performed by taking an advantage of a characteristic of LeuT binding to a substrate through a scintillation proximity assay (SPA) using [^3H]-Leu. […]
Specifically, wild type LeuT (leucine transporter) derived from a thermophilic bacterium, Aquifex aeolicus, was purified by a previously-disclosed method (G. Deckert et al., Nature 1998, 392, 353-358). LeuT was expressed in E. coli C41 (DE3) transformed with pET16b encoding a C-terminus 8×His-tagged transporter (the expression plasmid was provided by Dr E. Gouaux, Vollum Institute, Portland, Oreg., USA). In summary, following isolation of a bacterial membrane and lysis with 1% (w/v) DDM, the protein was allowed to bind to a Ni^2+-NTA resin (Life Technologies, Denmark), and eluted in 20 mM Tris-HCl (pH 8.0), 1 mM NaCl, 199 mM KCl, 0.05% (w/v) DDM and 300 mM imidazole. Afterward, the purified LeuT (approximately 1.5 mg/ml) was diluted with the same buffer used above, from which DDM and imidazole were removed, and then supplemented with TMGs or DDM at the final concentration of CMC+0.04% (w/v). […] SPA was performed using a buffer containing 450 mM NaCl and each of the TMGs and TMMs at the predetermined concentration. The SPA reaction is performed in the presence of 20 nM [^3H]-Leucine and 1.25 mg/ml copper chelate (His-Tag) YSi beads (Perkin Elmer, Denmark). A total [^3H]-Leucine binding degree of each sample was measured using a MicroBeta liquid scintillation counter (Perkin Elmer).

T2 sequence (P07550 whole entry): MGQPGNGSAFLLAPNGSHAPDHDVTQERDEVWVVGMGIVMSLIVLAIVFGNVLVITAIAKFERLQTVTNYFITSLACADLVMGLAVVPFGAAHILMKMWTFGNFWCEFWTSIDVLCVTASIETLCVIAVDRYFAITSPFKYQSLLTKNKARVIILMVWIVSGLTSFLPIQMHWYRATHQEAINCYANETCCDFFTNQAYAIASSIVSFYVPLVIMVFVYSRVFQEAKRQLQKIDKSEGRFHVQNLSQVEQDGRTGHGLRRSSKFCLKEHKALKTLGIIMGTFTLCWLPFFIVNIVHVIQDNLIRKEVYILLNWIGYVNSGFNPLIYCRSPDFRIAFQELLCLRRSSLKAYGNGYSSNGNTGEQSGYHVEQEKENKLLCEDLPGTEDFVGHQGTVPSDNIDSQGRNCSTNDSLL
T1 sequence (Q07307 12-574 G411V): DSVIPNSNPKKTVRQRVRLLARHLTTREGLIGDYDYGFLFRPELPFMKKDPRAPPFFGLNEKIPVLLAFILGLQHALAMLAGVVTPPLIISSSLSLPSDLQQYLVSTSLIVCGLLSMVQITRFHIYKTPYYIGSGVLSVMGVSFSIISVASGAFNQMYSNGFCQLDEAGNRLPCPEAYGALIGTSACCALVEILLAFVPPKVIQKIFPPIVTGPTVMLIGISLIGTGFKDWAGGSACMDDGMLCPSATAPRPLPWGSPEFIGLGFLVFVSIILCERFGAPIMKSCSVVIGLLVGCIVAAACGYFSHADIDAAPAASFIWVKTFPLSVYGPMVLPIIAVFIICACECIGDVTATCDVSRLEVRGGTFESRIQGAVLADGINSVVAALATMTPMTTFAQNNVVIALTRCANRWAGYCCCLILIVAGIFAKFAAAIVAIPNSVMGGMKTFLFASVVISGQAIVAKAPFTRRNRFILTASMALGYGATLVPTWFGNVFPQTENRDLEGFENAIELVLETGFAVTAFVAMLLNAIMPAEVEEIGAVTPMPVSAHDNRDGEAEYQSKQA

| SMILES | ability to conserve UapA transporter in a folded state [1] | Rh (nm), hydrodynamic radius of micelles [2] [nm] | long-term maintenance of binding between β2AR and ligand [3] | initial β2AR receptor activity ([3H]-DHA binding) [3] | CMC [4] [mM] | CMC (wt %) [4] [wt %] | substrate-binding ability of LeuT [5] |
| --- | --- | --- | --- | --- | --- | --- | --- |
| CCCCCCCCCCCCCC(CCCC(CCCCCCCCCCCCC)(CO[C@@H]1OC(CO)[C@@H](O)C(O)C1O)CO[C@@H]1OC(CO)[C@@H](O)C(O)C1O)(CO[C@@H]1OC(CO)[C@@H](O)C(O)C1O)CO[C@@H]1OC(CO)[C@@H](O)C(O)C1O (some centres unmarked) [TMG-A13] | excellent effect of stabilizing transporter folding | 3.6 ± 0.16 | superior to DDM in terms of long-term maintenance of binding between the receptor and the ligand | as effective as DDM | ~0.006 | ~0.0007 | – |
| CCCCCCCCCCCCCCC(CCCC(CCCCCCCCCCCCCC)(CO[C@@H]1OC(CO)[C@@H](O)C(O)C1O)CO[C@@H]1OC(CO)[C@@H](O)C(O)C1O)(CO[C@@H]1OC(CO)[C@@H](O)C(O)C1O)CO[C@@H]1OC(CO)[C@@H](O)C(O)C1O (some centres unmarked) [TMG-A14] | excellent effect of stabilizing transporter folding | 3.8 ± 0.10 | superior to DDM in terms of long-term maintenance of binding between the receptor and the ligand | – | ~0.004 | ~0.0005 | – |
| CCCCCCCCCCCOCC(CO[C@@H]1OC(CO)[C@@H](O)C(O)C1O)(CO[C@@H]1OC(CO)[C@@H](O)C(O)C1O)CSCC(COCCCCCCCCCCC)(CO[C@@H]1OC(CO)[C@@H](O)C(O)C1O)CO[C@@H]1OC(CO)[C@@H](O)C(O)C1O (some centres unmarked) [TMG-T11] | the least effective, and had lower stability than DDM | 3.0 ± 0.07 | – | – | ~0.020 | ~0.0025 | a better characteristic than DDM |
| CCCCCCCCCCCCCOCC(CO[C@@H]1OC(CO)[C@@H](O)C(O)C1O)(CO[C@@H]1OC(CO)[C@@H](O)C(O)C1O)CSCC(COCCCCCCCCCCCCC)(CO[C@@H]1OC(CO)[C@@H](O)C(O)C1O)CO[C@@H]1OC(CO)[C@@H](O)C(O)C1O (some centres unmarked) [TMG-T13] | excellent effect of stabilizing transporter folding | 3.3 ± 0.08 | superior to DDM in terms of long-term maintenance of binding between the receptor and the ligand | as effective as DDM | ~0.006 | ~0.0008 | a better characteristic than DDM |
| CCCCCCCCCCCCCCOCC(CO[C@@H]1OC(CO)[C@@H](O)C(O)C1O)(CO[C@@H]1OC(CO)[C@@H](O)C(O)C1O)CSCC(COCCCCCCCCCCCCCC)(CO[C@@H]1OC(CO)[C@@H](O)C(O)C1O)CO[C@@H]1OC(CO)[C@@H](O)C(O)C1O (some centres unmarked) [TMG-T14] | excellent effect of stabilizing transporter folding | 3.8 ± 0.09 | superior to DDM in terms of long-term maintenance of binding between the receptor and the ligand; also recorded: most excellent in maintenance of binding between a receptor and a ligand | – | ~0.004 | ~0.0005 | a better characteristic than DDM |
